Activity calls are given as the source filed them. The rule behind the calls is not given here.

Data set [1] deals with Rattus norvegicus. The data set can be described thus: Antidiabetic activity in STZ-induced diabetic Wistar rat blood assessed as HDL level at 2.5 mg/kg, po administered for 15 days (reference value: 36.31 +/- 0.51 mg/dl). Type of data set: functional.
In data set [2] the test system is Rattus norvegicus. The data set can be described thus: Antidiabetic activity in STZ-induced diabetic Wistar rat assessed as change in fasting blood glucose level at 2.5 mg/kg, po administered for 7 days post STZ challenge measured on day 14 by glucometry (reference value: 63.75 +/- 7.3 mg/dl). Format: functional.
In data set [3] the test system is Rattus norvegicus. The data set is described as follows: Antidiabetic activity in STZ-induced diabetic Wistar rat assessed as body weight at 2.5 mg/kg, po administered on day 7 post STZ challenge measured immediately post dosage (reference value: 330.7 +/- 9.2 g). Type of data set: functional.
For data set [4], the system named is Rattus norvegicus. The data set is described as follows: Antidiabetic activity in STZ-induced diabetic Wistar rat liver assessed as effect on central vein architecture at 2.5 mg/kg, po administered for 15 days by hematoxylin/eosin staining based microscopy. Format: functional, organism-based.
Data set [5] has as its system Rattus norvegicus. The data set is described as follows: Antidiabetic activity in STZ-induced diabetic Wistar rat assessed as effect on hepatocytes surrounding central vein architecture at 2.5 mg/kg, po administered for 15 days by hematoxylin/eosin staining based microscopy. Format: functional, organism-based.
Data set [6] has as its system Rattus norvegicus. The data set is described as follows: Antioxidant activity in STZ-induced diabetic Wistar rat liver assessed as glutathione peroxidase level measured as NADPH consumption per mg of protein at 2.5 mg/kg, po administered for 15 days (reference value: 10 +/- 0.6 microM/min). Format: functional.
Data set [7] relates to Rattus norvegicus. The data set is described as follows: Antidiabetic activity in STZ-induced diabetic Wistar rat blood assessed as cholesterol level at 2.5 mg/kg, po administered for 15 days (reference value: 80.09 +/- 9.35 mg/dl). Format: functional.
The test system of data set [8] is Rattus norvegicus. The data set is described as follows: Antidiabetic activity in STZ-induced diabetic Wistar rat assessed as change in fasting blood glucose level at 2.5 mg/kg, po administered on day 7 post STZ challenge measured immediately post dosage by glucometry (reference value: 63.75 +/- 7.3 mg/dl). Format: functional.
Data set [9] deals with Rattus norvegicus. The data set can be described thus: Antioxidant activity in STZ-induced diabetic Wistar rat liver assessed as SOD level measured per mg of protein at 2.5 mg/kg, po administered for 15 days by NBT reduction test (reference value: 0.22 +/- 0.06 microM/min). Format: functional.
In data set [10] the test system is Rattus norvegicus. The data set can be described thus: Antidiabetic activity in STZ-induced diabetic Wistar rat assessed as increase in body weight at 2.5 mg/kg, po administered for 15 days post STZ challenge measured on day 21. Format: functional.
Data set [11] deals with Rattus norvegicus. The data set can be described thus: Antidiabetic activity in STZ-induced diabetic Wistar rat blood assessed as LDL level at 2.5 mg/kg, po administered for 15 days (reference value: 23.11 +/- 9.82 mg/dl). Type of data set: functional.
Data set [12] relates to Rattus norvegicus. The data set is described as follows: Antidiabetic activity in STZ-induced diabetic Wistar rat assessed as change in fasting blood glucose level at 2.5 mg/kg, po administered for 15 days post STZ challenge measured on day 21 by glucometry (reference value: 63.75 +/- 7.3 mg/dl). Type of data set: functional.
Data set [13] relates to Rattus norvegicus. The data set can be described thus: Antidiabetic activity in STZ-induced diabetic Wistar rat blood assessed as creatinine level at 2.5 mg/kg, po administered for 15 days (reference value: 0.56 +/- 0.03 mg/dl). Format: functional.
Data set [14] has as its system Rattus norvegicus. The data set can be described thus: Antidiabetic activity in STZ-induced diabetic Wistar rat assessed as body weight at 2.5 mg/kg, po administered for 15 days post STZ challenge measured on day 21 (reference value: 330.7 +/- 9.2 g). Format: functional.
The subject of data set [15] is Rattus norvegicus. The data set can be described thus: Antidiabetic activity in STZ-induced diabetic Wistar rat blood assessed as urea level at 2.5 mg/kg, po administered for 15 days (reference value: 62.98 +/- 6.21 mg/dl). Format: functional.
For data set [16], the system named is Rattus norvegicus. The data set is described as follows: Antidiabetic activity in STZ-induced diabetic Wistar rat assessed as decrease in blood glucose level at 2.5 mg/kg, po administered for 15 days post STZ challenge measured on day 21 by glucometry relative to control. Type of data set: functional. Also on record: scale not given: the % may be the effect or the level left.

The subject of data set [17] is Rattus norvegicus. The data set is described as follows: Antidiabetic activity in STZ-induced diabetic Wistar rat assessed as increase in fasting blood glucose level at 2.5 mg/kg, po administered for 15 days post STZ challenge measured on day 21 by glucometry. Format: functional.
Data set [18] deals with Rattus norvegicus. The data set is described as follows: Antioxidant activity in STZ-induced diabetic Wistar rat liver assessed as catalase level measured as H2O2 consumption per mg of protein at 2.5 mg/kg, po administered for 15 days (reference value: 68.9 +/- 11.1 microM/min). Type of data set: functional.
Data set [19] in a line: Mutagenicity in Salmonella typhimurium TA100 assessed as mutagenic index at 0.005 uM/plate after 48 hrs in presence of S9 fraction by Ames test relative to control. Type of data set: toxicity, subcellular. Particulars: salmonella enterica subsp. enterica serovar typhimurium, s9, 48 h. (In the Ames test, an excess of revertant colonies over the control signals mutagenicity.)

Data set [20] in a line: Mutagenicity in Salmonella typhimurium TA98 assessed as mutagenic index at 0.005 uM/plate after 48 hrs in presence of S9 fraction by Ames test relative to control. Format: toxicity, subcellular. The conditions noted are these: salmonella enterica subsp. enterica serovar typhimurium, s9, 48 h.
Data set [21] can be described thus: Mutagenicity in Salmonella typhimurium TA102 assessed as mutagenic index at 0.005 uM/plate after 48 hrs in presence of S9 fraction by Ames test relative to control. Type of data set: toxicity, subcellular. The conditions noted are these: salmonella enterica subsp. enterica serovar typhimurium, s9, 48 h.
The nature of data set [22]: Mutagenicity in Salmonella typhimurium TA98 assessed as mutagenic index at 0.19 uM/plate after 48 hrs in absence of S9 fraction by Ames test relative to control. Particulars: salmonella enterica subsp. enterica serovar typhimurium, s9, 48 h. Type of data set: toxicity.
The nature of data set [23]: Toxicity in DBA/2J mouse assessed as mortality. The conditions noted are these: in vivo.
For data set [24], the system named is Rattus norvegicus. The data set is described as follows: Antidiabetic activity in STZ-induced diabetic albino Wistar rat assessed as increase in body weight at 100 mg/kg, po administered for 45 days relative to control. Format: functional.

As to `COc1ccc(Cl)cc1C(=O)NCCc1ccc(S(=O)(=O)NC(=O)NC2CCCCC2)cc1` [GLYBURIDE], the Activity came out at 26.6 mg/dL in data set [1]; 282.8 mg/dL in data set [2]; 341.4 g in [3]; 48.75 µM/min in data set [6]; 70.64 mg/dL in [7]; 211.7 mg/dL in data set [8]. In addition, the Activity was determined as 0.55 U/min in data set [9]; 54.8 g in data set [10]; 21.71 mg/dL in data set [11]; 142 mg/dL in data set [12]; 0.62 mg/dL in data set [13]; 385.5 g in data set [14]. Moreover, the Activity in data set [15] came to 58.43 mg/dL; in data set [16], 56.6%; in data set [17] it was 78.25 mg/dL; in [18], 93.2 µM/min. The outcome in data set [4] and in [5] was Active.
`Nc1ccc2cc3ccccc3cc2c1` [2-AMINOANTHRACENE]: the Ratio in data set [19] is reported as 19.1; in data set [20], 54.1; in data set [21] it was 3.5.
Regarding `CC1=NN(c2ccc([N+](=O)[O-])cc2)C(=O)C1[N+](=O)[O-]` (centres undefined), the Ratio in data set [22] was found to be 27.3.
Take `O=c1ccc2ccccc2o1` [COUMARIN]: the 50% lethal dose (LD50) in data set [23] is > 700 mg/kg.
On to `C[C@@H]1O[C@@H](OC[C@H]2O[C@@H](Oc3c(-c4ccc(O)c(O)c4)oc4cc(O)cc(O)c4c3=O)[C@H](O)[C@@H](O)[C@@H]2O)[C@H](O)[C@H](O)[C@H]1O` [RUTIN], for which, in [24], the Activity is 12.1%.

In general, LD50 refers to the dose expected to kill half of the subjects tested.

The record behind these values is ChEMBL document CHEMBL4477224, “Antidiabetic effect, antioxidant activity, and toxicity of 3',4'-Di-O-acetyl-cis-khellactone in Streptozotocin-induced diabetic rats” (Bioorg Med Chem Lett, 2016).
